For this assay, the system named is 4T1 tumor. The assay is described as follows: Therapeutic efficacy, 4T1 tumor-bearing mice.

Description: (c) Tumor growth curves (n=6) and (d) overall survival curves (n=6) of 4T1 tumor-bearing mice. […] 95% confidence intervals were obtained by two-sided Student t-test analysis. […] Data are presented as mean±SD and analyzed by two-tailed Student's t-test.
FIG. 47 depicts the tumor control rate and body weights of mice. […] (c) Body weights of 4T1 tumor-bearing mice after intraperitoneal injection of saline, Oxa (6 mg/kg), aPD-L1 (10 mg/kg) and aPD-L1/Oxa at day 0, 2 and 4. […] Statistical significance was performed by two-tailed Student's t-test. ns: not significant, *P<0.05, **P<0.01, ***P<0.001, ****P<0.0001.
After tumor inoculation for one week, 4T1 tumor-bearing mice were administrated with aPD-L1 (10 mg/kg), Oxa (6 mg/kg) or the combination of aPD-L1 and Oxa (aPD-L1/Oxa) intraperitoneally every two days for three times.
The tumor control rate was calculated with the following formulas:
Vt0 means the volume of tumor on day 0, Vt means the volume at certain time, c means the control group (saline, without irradiation), and s means the group needed calculation.

`O=C1[O][Pt]2([NH][C@@H]3CCCC[C@H]3[NH]2)[O]C1=O` [Oxa, oxaliplatin]: the survival rate is given as 50%. For the same compound, the “tumor control rate (TCR)” value (intraperitoneal, every two days for three times) is reported as 48%.

The values are drawn from patent publication US20250099625A1, “TANDEM MOLECULAR FLUORESCENCE REPORTERS FOR DETECTION OF TUMOR-INFILTRATING LEUKOCYTES” (Nanyang Technological University, priority 2021, published 2025).
